# Experimental data reported in BindingDB's records for doi:10.1016/0014-2999(88)90158-6 (Pharmakologisches Institut, 1988).
# Experiments:
# Adenosine receptor A2a = Adenosine receptor A2a (Homo sapiens, UniProt P29274)
# Adenosine receptor A1 = molecular target: T1, Adenosine receptor A1 (Rattus norvegicus, UniProt P25099)
# T1 sequence (P25099 whole entry): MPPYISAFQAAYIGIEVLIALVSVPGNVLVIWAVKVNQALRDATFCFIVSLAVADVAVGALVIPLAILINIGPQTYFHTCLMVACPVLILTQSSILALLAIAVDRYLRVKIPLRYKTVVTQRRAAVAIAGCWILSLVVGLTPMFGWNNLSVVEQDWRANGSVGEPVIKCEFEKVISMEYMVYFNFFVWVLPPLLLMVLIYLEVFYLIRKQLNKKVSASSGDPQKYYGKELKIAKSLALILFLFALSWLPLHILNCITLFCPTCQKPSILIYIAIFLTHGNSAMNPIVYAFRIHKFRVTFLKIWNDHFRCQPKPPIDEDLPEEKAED
# Adenosine receptor A2a, sequence (P29274 whole entry): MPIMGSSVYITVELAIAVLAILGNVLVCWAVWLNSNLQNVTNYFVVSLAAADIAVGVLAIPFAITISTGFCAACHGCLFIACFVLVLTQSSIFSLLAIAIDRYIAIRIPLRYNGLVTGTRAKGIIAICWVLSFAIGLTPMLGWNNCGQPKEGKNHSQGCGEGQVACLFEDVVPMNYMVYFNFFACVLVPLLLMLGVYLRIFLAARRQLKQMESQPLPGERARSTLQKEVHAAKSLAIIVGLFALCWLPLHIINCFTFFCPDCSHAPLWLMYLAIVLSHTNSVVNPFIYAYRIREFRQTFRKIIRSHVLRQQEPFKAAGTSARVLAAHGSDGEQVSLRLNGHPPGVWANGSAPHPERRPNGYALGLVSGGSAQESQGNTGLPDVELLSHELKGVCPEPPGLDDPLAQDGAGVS
Ki (Adenosine receptor A2a) [µM],Ki (Adenosine receptor A1) [µM],SMILES
> 10,,OC[C@H]1CC[C@H](n2cnc3c(NC4CCCCC4)ncnc32)O1 [alpha-ddCHA]
> 10,4.8,OC[C@@H]1CC[C@H](n2cnc3c(NC4CCCCC4)ncnc32)O1 [ddCHA]
